Assay results published in PubChem BioAssay (NCI).
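1) Cells in 96-well plates. 2) Compound, 48 h, 5 concentrations. 3) Linear interpolation between surrounding doses. 4) Unreached endpoint = highest concentration. GI50 = concentration required for 50% inhibition of growth. TGI: concentration producing complete growth inhibition.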

Tests used:
Assay in all cases: NCI tumour cell line growth inhibition, 48 h
EKVX NSCLC = test system: EKVX NSCLC
HCT-15 colon = test system: HCT-15 colon
K-562 leukemia = test system: K-562 leukemia
NCI-H226 lung = test system: NCI-H226 lung
OVCAR-8 ovarian = test system: OVCAR-8 ovarian
SF-539 CNS = test system: SF-539 CNS
SK-MEL-28 melanoma = test system: SK-MEL-28 melanoma
SN12C renal = test system: SN12C renal
U251 CNS = test system: U251 CNS
DMS 273 small cell lung = test system: DMS 273 small cell lung
HOP-18 NSCLC = test system: HOP-18 NSCLC

| Structure (SMILES) | TGI (EKVX NSCLC) | TGI (HCT-15 colon) | TGI (K-562 leukemia) | TGI (NCI-H226 lung) | TGI (OVCAR-8 ovarian) | TGI (SF-539 CNS) | TGI (SK-MEL-28 melanoma) | TGI (SN12C renal) | TGI (U251 CNS) | TGI (DMS 273 small cell lung) | TGI (HOP-18 NSCLC) | GI50 (EKVX NSCLC) | GI50 (HCT-15 colon) | GI50 (K-562 leukemia) | GI50 (SF-539 CNS) | GI50 (SK-MEL-28 melanoma) | GI50 (SN12C renal) | GI50 (NCI-H226 lung) | GI50 (OVCAR-8 ovarian) | GI50 (U251 CNS) |
| --- | --- | --- | --- | --- | --- | --- | --- | --- | --- | --- | --- | --- | --- | --- | --- | --- | --- | --- | --- | --- |
| c1ccc2sc(C3(N4CCCCC4)CCCC3)cc2c1 | 22 µM | 21.6 µM | 23.9 µM | 13.5 µM | 24.7 µM | 31.7 µM | 28.7 µM | 33.1 µM |  |  |  |  |  |  |  |  |  |  |  |  |
| CC1(C)COC(/C=C/C2=NC(C)(C)CO2)=N1 | 41.8 µM | 34.5 µM | 63.4 µM | 59.4 µM | 51.6 µM | 51.7 µM | 38.1 µM | 9.89 µM | 64.3 µM |  |  |  |  |  |  |  |  |  |  |  |
| O=C1c2ccccc2-c2ccc(N=[N+]([O-])c3ccc4c(c3)C(=O)c3ccccc3-4)cc21 | > 100 µM | > 100 µM | > 100 µM | > 100 µM | > 100 µM |  | > 100 µM | > 100 µM | > 100 µM |  |  |  |  |  |  |  |  |  |  |  |
| CC(O)C(O)C(N)CC=O (centres undefined) | > 500 µM | > 500 µM | > 500 µM | > 500 µM | > 500 µM | > 500 µM | > 500 µM | > 500 µM | > 500 µM | > 500 µM | > 500 µM |  |  |  |  |  |  |  |  |  |
| COC(=O)C1=CC[C@@H]2C(C(=O)O)=CO[C@@H](OC3OC(CO)C(O)C(O)C3O)[C@H]12 (some centres undefined) | > 300 µM | > 300 µM | > 300 µM | > 300 µM | > 300 µM | > 300 µM | > 300 µM | > 300 µM | > 300 µM | > 300 µM | > 300 µM |  |  |  |  |  |  |  |  |  |
| O=C(/C=C/c1ccc(O)cc1)NCCc1ccc(O)cc1 | > 12.5 µM | > 12.5 µM | > 12.5 µM | > 12.5 µM | > 12.5 µM | 11.1 µM | > 12.5 µM | > 12.5 µM | > 12.5 µM |  |  |  |  |  |  |  |  |  |  |  |
| CC(=O)OCC1OC(O[C@@H]2c3c(O)c4c(c(O)c3C3=C(NN(c5ccc([N+](=O)[O-])cc5[N+](=O)[O-])[Se]3=O)[C@@]2(C)O)C(=O)c2ccccc2C4=O)C(OC(C)=O)C(OC(C)=O)C1OC(C)=O (some centres undefined) | 0.677 µM | 0.873 µM | 0.431 µM | 0.947 µM | 0.562 µM |  | 1.02 µM | 0.552 µM | 0.458 µM |  |  |  |  |  |  |  |  |  |  |  |
| CN(C)Cc1ccc(C(=O)Nc2ccc3ncnc(Nc4ccc(Oc5cccc(F)c5)c(Cl)c4)c3c2)cc1 | 2.7 µM | 2.62 µM | 2.88 µM |  |  | 3.04 µM | 3.09 µM | 2.81 µM |  |  |  | 1.3 µM | 1.25 µM | 1.17 µM | 1.6 µM | 1.68 µM | 1.44 µM |  |  |  |
| C[N+]1(C)CCC(C#N)(c2ccccc2)CC1 | > 100 µM | > 100 µM | > 100 µM |  | > 100 µM |  | > 100 µM |  | > 100 µM |  |  |  |  |  |  |  |  |  |  |  |
| CC(C)C(N=Cc1ccccc1O)C(=O)O (centres undefined) | > 100 µM | > 100 µM | > 100 µM | > 100 µM | > 100 µM | > 100 µM | > 100 µM | > 100 µM | > 100 µM |  |  |  |  |  |  |  |  |  |  |  |
| Fc1ccc(-c2ccc(-c3nnc(-c4cc(F)c(Cl)cc4Cl)o3)o2)cc1Cl | > 100 µM | > 100 µM | > 100 µM | 76.1 µM | > 100 µM | 85.7 µM | 68.2 µM | > 100 µM | > 100 µM |  |  | 26.5 µM | 27.6 µM | 48.5 µM | 29.4 µM | 24.9 µM | 33.3 µM | 20.9 µM | 31.9 µM | 32.8 µM |
